The results in this text go back to patent US20140057915A1, “KINASE INHIBITORS” (TOPIVERT PHARMA LIMITED, priority 2012, published 2014).

Bounds are passed on as bounds.

The IC50 is the concentration at which inhibition is half-maximal.

One data set concerns the target Syk (Homo sapiens, UniProt P43405). Nature of the data set: Syk enzyme inhibition (FRET). In kind it is biochemical. Conditions: Table 4a1. The method, boiled down: (§1)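 Enzyme was preincubated with test compound (added as 4, 0.4, 0.04 or 0.004 μg/mL solutions) for 2 hr at RT. FRET peptide (8 μM solution) and ATP solution (800 μM for c-Src, 60 μM for Syk) were then added for 1 hr, followed by 1 hr protease development.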

For the next data set, the target named is cSrc (Homo sapiens, UniProt P12931). Kind of data set: c-Src enzyme inhibition (FRET). The class given is biochemical. The conditions noted are these: Table 4a1. The method, boiled down:
as §1

A further data set concerns the target GSK3α (Homo sapiens, UniProt P49840). Nature of the data set: GSK 3α enzyme inhibition (FRET), Method 1. The class given is biochemical. The conditions noted are these: Table 4a1. An outline of the steps: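 Steps: preincubate GSK3α with compound 2 hr at room temperature; start reaction with peptide and ATP for 1 hr; develop with site-specific protease for 1 hr; measure fluorescence and take the coumarin/fluorescein ratio as the phosphorylation level.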

In data set [1] the test system is IL-8 release, d-U937 cells. Nature of the data set: LPS-induced IL-8 release in d-U937 cells. The class given is cell-based. The conditions noted are these: Homo sapiens, dU937; Table 4c1; read-out: LPS Induced Release of Cytokine in d-U937 Cells, IL-8 IC50. The method, boiled down: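 IL-8 release after a 4 hr challenge with LPS (0.1 μg/mL, E. coli 0111:B4) following a 2 hr compound pretreatment. Cells were human U937 monocytes differentiated to macrophage-type with PMA 100 ng/mL for 48–72 hr. Relative 50% effective concentration derived from concentration–response data.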

The subject of data set [2] is ICAM-1 expression, BEAS2B cells. Nature of the data set: Poly I:C-induced ICAM-1 expression in BEAS2B cells. The class given is cell-based. The conditions noted are these: Homo sapiens, BEAS-2B; read-out: Poly IC induced ICAM1 in BEAS2B, IC50. An outline of the steps:
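Cell-based ELISA for surface ICAM-1 in human BEAS2B cells 18 h after transfection with the RNA-virus mimic poly I:C (1 μg/mL, with Oligofectamine), compounds added 2 h beforehand. OD450–655 divided by Crystal Violet OD595 per well; percent inhibition relative to vehicle.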

In another data set the test system is d-U937 cells. Nature of the data set: Cell viability: MTT assay. In kind it is cell-based, human. The conditions noted are these: 1 μg/mL. An outline of the steps:
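MTT reduction (1 h, DMSO solubilisation, A550) measured after compound treatment at 1 or 10 μg/mL of differentiated U937 cells for 4 h (5% FCS RPMI1640) or 24 h (10% FCS). Percentage viability loss computed relative to 0.5% DMSO vehicle, with increases tabulated as negative values.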
On the technique in general: Tetrazolium assays rely on reduction of a dye to a coloured formazan, in cell work by metabolically active cells.

The subject of data set [3] is TNFα release, d-U937 cells. Nature of the data set: LPS-induced TNFα release in d-U937 cells. The class given is cell-based. Conditions: Homo sapiens, dU937; relative to 10 μg/mL BIRB796; Table 4c1; read-out: LPS Induced Release of Cytokine in d-U937 Cells, TNFα REC50. An outline of the steps: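 Sandwich ELISA quantifies cytokine in supernatants after 4 hr LPS challenge (0.1 μg/mL) of PMA-differentiated (100 ng/mL, 48–72 hr) U937 macrophages given compound 2 hr beforehand. REC50 derived from concentration-response curve, inhibition calculated relative to vehicle.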

Sequence of cSrc (P12931 whole entry): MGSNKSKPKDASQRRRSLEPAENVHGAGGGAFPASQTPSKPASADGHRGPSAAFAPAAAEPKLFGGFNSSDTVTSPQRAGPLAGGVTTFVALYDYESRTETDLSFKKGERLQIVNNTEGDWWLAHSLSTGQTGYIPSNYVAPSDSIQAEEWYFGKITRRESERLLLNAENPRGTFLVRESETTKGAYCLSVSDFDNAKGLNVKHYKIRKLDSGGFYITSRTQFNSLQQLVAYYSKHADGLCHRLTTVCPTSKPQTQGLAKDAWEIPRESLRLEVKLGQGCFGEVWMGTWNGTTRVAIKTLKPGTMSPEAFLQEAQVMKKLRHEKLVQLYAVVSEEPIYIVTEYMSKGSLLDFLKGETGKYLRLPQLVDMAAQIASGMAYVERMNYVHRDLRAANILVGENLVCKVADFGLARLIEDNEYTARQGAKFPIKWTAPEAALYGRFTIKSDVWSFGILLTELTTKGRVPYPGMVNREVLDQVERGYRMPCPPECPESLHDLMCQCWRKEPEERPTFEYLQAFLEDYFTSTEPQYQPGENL
Sequence of GSK3α (P49840 whole entry): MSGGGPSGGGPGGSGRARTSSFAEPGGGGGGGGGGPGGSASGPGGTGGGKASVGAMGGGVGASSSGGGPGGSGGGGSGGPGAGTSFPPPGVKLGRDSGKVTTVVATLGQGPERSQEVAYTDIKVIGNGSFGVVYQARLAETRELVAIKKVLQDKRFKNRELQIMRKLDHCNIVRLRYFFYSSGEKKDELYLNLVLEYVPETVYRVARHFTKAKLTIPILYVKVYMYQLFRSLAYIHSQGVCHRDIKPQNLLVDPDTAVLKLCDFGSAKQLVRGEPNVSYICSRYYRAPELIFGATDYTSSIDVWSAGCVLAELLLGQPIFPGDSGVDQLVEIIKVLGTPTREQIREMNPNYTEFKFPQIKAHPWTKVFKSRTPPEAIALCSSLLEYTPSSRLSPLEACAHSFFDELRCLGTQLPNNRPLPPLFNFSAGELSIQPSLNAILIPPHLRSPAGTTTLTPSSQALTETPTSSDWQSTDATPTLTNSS

For the compound `COc1cc(Nc2nccc(Oc3ccc(NC(=O)Nc4cc(C(C)C)nn4-c4ccc(C)c(C)c4)c4ccccc34)n2)cc(C(=O)NCCN2CCOCC2)c1` [Example 56, 3-((4-((4-(3-(1-(3,4-dimethylphenyl)-3-isopropyl-1H-pyrazol-5-yl)ureido)naphthalen-1-yl)oxy)pyrimidin-2-yl)amino)-5-methoxy-N-(2-morpholinoethyl)benzamide], the IC50 on Syk is 12 nM; at cSrc it was 5 nM; at GSK3α, over 13000 nM; in data set [1] it was 1.7 nM; in data set [2] it was 85.4 nM. For the same compound, the “Cell viability at time point in d-U937 cells, 4 h” value with d-U937 cells was “−ve (−ve and +ve indicate that the value is below and above respectively, the no significant effect threshold, defined as 30% inhibition at 1 μg/mL at the time point indicated)”. Also, the “Cell viability at time point in d-U937 cells, 24 h” value (“Cell viability at time point … 24 h” for short) with d-U937 cells was “−ve (−ve and +ve indicate that the value is below and above respectively, the no significant effect threshold, defined as 30% inhibition at 1 μg/mL at the time point indicated)”. In addition, the EC50 in data set [3] turned out to be 1.4 nM.

With `COc1ccc(-n2nc(C3CCCO3)cc2NC(=O)Nc2ccc(Oc3ccnc(Nc4cc(OC)cc(C(=O)NCCN5CCOCC5)c4)n3)c3ccccc23)cc1` (stereo not shown) [Example 58, 3-methoxy-5-((4-((4-(3-(1-(4-methoxyphenyl)-3-(tetrahydrofuran-2-yl)-1H-pyrazol-5-yl)ureido)naphthalen-1-yl)oxy)pyrimidin-2-yl)amino)-N-(2-morpholinoethyl)benzamide], the IC50 against Syk is 296 nM; against cSrc it was under 1 nM; at GSK3α it was 8470 nM; in data set [1] it was 46.3 nM; in data set [2], 2.1 nM. Further, the “Cell viability at time point in d-U937 cells, 4 h” value in the data set on d-U937 cells is “−ve (−ve and +ve indicate that the value is below and above respectively, the no significant effect threshold, defined as 30% inhibition at 1 μg/mL at the time point indicated)”. In addition, in the data set with d-U937 cells, the “Cell viability at time point … 24 h” value was “−ve (−ve and +ve indicate that the value is below and above respectively, the no significant effect threshold, defined as 30% inhibition at 1 μg/mL at the time point indicated)”. In addition, the EC50 in data set [3] is 11.7 nM.

For the compound `COc1ccc(-n2nc(C3CCOC3)cc2NC(=O)Nc2ccc(Oc3ccnc(Nc4cc(OC)cc(C(=O)NCCN5CCOCC5)c4)n3)c3ccccc23)cc1` (stereo not shown) [Example 59, 3-methoxy-5-((4-((4-(3-(1-(4-methoxyphenyl)-3-(tetrahydrofuran-3-yl)-1H-pyrazol-5-yl)ureido)naphthalen-1-yl)oxy)pyrimidin-2-yl)amino)-N-(2-morpholinoethyl)benzamide], the IC50 is 12 nM against Syk; under 1 nM at cSrc; 1190 nM at GSK3α; 6.8 nM in data set [1]; 39.7 nM in data set [2]. Also, in the data set with d-U937 cells, the “Cell viability at time point in d-U937 cells, 4 h” value is “−ve (−ve and +ve indicate that the value is below and above respectively, the no significant effect threshold, defined as 30% inhibition at 1 μg/mL at the time point indicated)”. Further, in the data set on d-U937 cells, the “Cell viability at time point … 24 h” value is “−ve (−ve and +ve indicate that the value is below and above respectively, the no significant effect threshold, defined as 30% inhibition at 1 μg/mL at the time point indicated)”. Also, in data set [3], the EC50 was determined as 2 nM.

On to `Cc1ccc(-n2nc(C(C)C)cc2NC(=O)Nc2ccc(Oc3ccnc(Nc4cc(Cl)cc(C(=O)NCCN5CCOCC5)c4)n3)c3ccccc23)cc1` [Example 60, 3-chloro-5-((4-((4-(3-(3-isopropyl-1-(p-tolyl)-1H-pyrazol-5-yl)ureido)naphthalen-1-yl)oxy)pyrimidin-2-yl)amino)-N-(2-morpholinoethyl)benzamide], for which the IC50 against Syk was 60 nM; against cSrc it was 13 nM; on GSK3α it was over 13200 nM; in data set [1], 3.9 nM; in data set [2], 132 nM. The “Cell viability at time point in d-U937 cells, 4 h” value with d-U937 cells is “−ve (−ve and +ve indicate that the value is below and above respectively, the no significant effect threshold, defined as 30% inhibition at 1 μg/mL at the time point indicated)”. In addition, the “Cell viability at time point … 24 h” value in the data set on d-U937 cells is “−ve (−ve and +ve indicate that the value is below and above respectively, the no significant effect threshold, defined as 30% inhibition at 1 μg/mL at the time point indicated)”. In data set [3], the EC50 was determined as 1.1 nM.

On to `COc1ccc(-n2nc(C(C)C)cc2NC(=O)Nc2ccc(Oc3ccnc(Nc4cc(Cl)cc(C(=O)NCCN5CCOCC5)c4)n3)c3ccccc23)cc1` [Example 61, 3-chloro-5-((4-((4-(3-(3-isopropyl-1-(4-methoxyphenyl)-1H-pyrazol-5-yl)ureido)naphthalen-1-yl)oxy)pyrimidin-2-yl)amino)-N-(2-morpholinoethyl)benzamide], for which the IC50 against Syk was found to be 32 nM; against cSrc it was 9 nM; against GSK3α it was 6940 nM; in data set [1] it was 2 nM; in data set [2], 129 nM. The “Cell viability at time point in d-U937 cells, 4 h” value in the data set with d-U937 cells was “−ve (−ve and +ve indicate that the value is below and above respectively, the no significant effect threshold, defined as 30% inhibition at 1 μg/mL at the time point indicated)”. Further, the “Cell viability at time point … 24 h” value in the data set with d-U937 cells was “−ve (−ve and +ve indicate that the value is below and above respectively, the no significant effect threshold, defined as 30% inhibition at 1 μg/mL at the time point indicated)”. For the same compound, in data set [3], the EC50 worked out at 1.1 nM.

Regarding `Cc1ccc(-n2nc(C(C)(C)C)cc2NC(=O)Nc2ccc(Oc3ccnc(Nc4cc(Br)cc(C(=O)NCCN5CCOCC5)c4)n3)c3ccccc23)cc1` [Example 62, 3-bromo-5-((4-((4-(3-(3-(tert-butyl)-1-(p-tolyl)-1H-pyrazol-5-yl)ureido)naphthalen-1-yl)oxy)pyrimidin-2-yl)amino)-N-(2-morpholinoethyl)benzamide], the IC50 is 13 nM against Syk; 7 nM against cSrc; 995 nM at GSK3α; 1.8 nM in data set [1]; 1 nM in data set [2]. For the same compound, in the data set on d-U937 cells, the “Cell viability at time point in d-U937 cells, 4 h” value was “−ve (−ve and +ve indicate that the value is below and above respectively, the no significant effect threshold, defined as 30% inhibition at 1 μg/mL at the time point indicated)”. Besides, in the data set with d-U937 cells, the “Cell viability at time point … 24 h” value was “+ve (−ve and +ve indicate that the value is below and above respectively, the no significant effect threshold, defined as 30% inhibition at 1 μg/mL at the time point indicated)”. Besides, the EC50 in data set [3] turned out to be 1.4 nM.

With `COc1cc(Nc2nccc(Oc3ccc(NC(=O)Nc4cc(C(C)(C)C)nn4-c4ccc(C)cc4)c4ccccc34)n2)cc(C(=O)NCCO)c1` [Example 64, 3-((4-((4-(3-(3-(tert-butyl)-1-(p-tolyl)-1H-pyrazol-5-yl)ureido)naphthalen-1-yl)oxy)pyrimidin-2-yl)amino)-N-(2-hydroxyethyl)-5-methoxybenzamide], the IC50 was 13 nM against Syk; 2 nM against cSrc; 122 nM on GSK3α; 0.8 nM in data set [1]; 1 nM in data set [2]. For the same compound, the “Cell viability at time point in d-U937 cells, 4 h” value in the data set with d-U937 cells was “−ve (−ve and +ve indicate that the value is below and above respectively, the no significant effect threshold, defined as 30% inhibition at 1 μg/mL at the time point indicated)”. Besides, the “Cell viability at time point … 24 h” value in the data set with d-U937 cells is “−ve (−ve and +ve indicate that the value is below and above respectively, the no significant effect threshold, defined as 30% inhibition at 1 μg/mL at the time point indicated)”. In addition, the EC50 in data set [3] turned out to be 0.4 nM.

`COCCNC(=O)c1cc(Nc2nccc(Oc3ccc(NC(=O)Nc4cc(C(C)C)nn4-c4ccc(C)cc4)c4ccccc34)n2)cc(OC)c1` [Example 66, 3-((4-((4-(3-(3-isopropyl-1-(p-tolyl)-1H-pyrazol-5-yl)ureido)naphthalen-1-yl)oxy)pyrimidin-2-yl)amino)-5-methoxy-N-(2-methoxyethyl)benzamide]: the IC50 is 234 nM against Syk; 6 nM against cSrc; over 14300 nM at GSK3α; 3.4 nM in data set [1]; 2.2 nM in data set [2]. Moreover, the “Cell viability at time point in d-U937 cells, 4 h” value with d-U937 cells is “−ve (−ve and +ve indicate that the value is below and above respectively, the no significant effect threshold, defined as 30% inhibition at 1 μg/mL at the time point indicated)”. For the same compound, the “Cell viability at time point … 24 h” value in the data set with d-U937 cells is “−ve (−ve and +ve indicate that the value is below and above respectively, the no significant effect threshold, defined as 30% inhibition at 1 μg/mL at the time point indicated)”. Also, the EC50 in data set [3] was 1.6 nM.
